Experimental data from ChEMBL document CHEMBL3885861, “Open TG-GATES”.

Organism: Rattus norvegicus
Assay: Open TG-GATES - Regimen: Daily Repeat
Type: toxicity, organism-based, Sprague-Dawley
Design: regimen Daily Repeat, gender Male, age 6 weeks
Conditions: in vivo, po, route gavage; for APTT / Bas / Eos / Fbg / Hb / Ht / Lym / MCH / MCHC / MCV / Mono / Neu / PT / Plat / RBC / Ret / WBC: tissue Blood; for KIDNEY_L / KIDNEY_R / KIDNEY_TOTAL: tissue Kidney; for LIVER: tissue Liver; for A/G / ALP / ALT / AST / BUN / CRE / Ca / Cl / DBIL / GLC / IP / K / LDH / Na / PL / RALB / TBIL / TC / TG / TP / gamma-GTP: tissue Plasma
[1] = 150 mg/kg, 72 h, dose level Middle, time 3 day
[2] = 150 mg/kg, […], dose level Middle, time 7 day
[3] = 150 mg/kg, […], dose level Middle, time 14 day
[4] = 150 mg/kg, […], dose level Middle, time 28 day
[5] = 500 mg/kg, 72 h, dose level High, time 3 day
[6] = 500 mg/kg, […], dose level High, time 7 day
[7] = 500 mg/kg, […], dose level High, time 14 day
[8] = 500 mg/kg, […], dose level High, time 28 day

## CN1C(=O)CCS(=O)(=O)C1c1ccc(Cl)cc1 (centres undefined) [CHLORMEZANONE]
[1]
  TERMINAL_BW: 226.1 g
  APTT: 15.7 s
  Bas: 0%
  Eos: 1%
  Fbg: 296.4 mg/dL
  Hb: 13.5 g/dL
  Ht: 39.4%
  Lym: 76%
  MCH: 21.8 pg
  MCHC: 34.1%
  MCV: 63.8 fL
  Mono: 2.8%
  Neu: 19.4%
  PT: 11.4 s
  Plat: 123.4 x10_4/uL
  RBC: 618 x10_4/ul
  Ret: 6.2%
  WBC: 86.7 x10_2/uL
  KIDNEY_L: 0.9 g
  KIDNEY_R: 0.9 g
  KIDNEY_TOTAL: 1.8 g
  LIVER: 13 g
  A/G: 0.9
  ALP: 1825 IU/L
  ALT: 52.2 IU/L
  AST: 69 IU/L
  BUN: 15.4 mg/dL
  CRE: 0.2 mg/dL
  Ca: 11.2 mg/dL
  Cl: 106.6 meq/L
  DBIL: 0.014 mg/dL
  GLC: 179.6 mg/dL
  IP: 7.1 mg/dL
  K: 4.5 meq/L
  LDH: 74.6 IU/L
  Na: 143 meq/L
  PL: 144 mg/dL
  RALB: 2.8 g/dL
  TBIL: 0.026 mg/dL
  TC: 80.4 mg/dL
  TG: 94.6 mg/dL
  TP: 5.9 g/dL
  gamma-GTP: 1.4 IU/L
[2]
  TERMINAL_BW: 265.5 g
  APTT: 17 s
  Bas: 0%
  Eos: 0.8%
  Fbg: 302.2 mg/dL
  Hb: 13.2 g/dL
  Ht: 39.4%
  Lym: 78.2%
  MCH: 21.3 pg
  MCHC: 33.5%
  MCV: 63.4 fL
  Mono: 3%
  Neu: 18%
  PT: 11.5 s
  Plat: 129.2 x10_4/uL
  RBC: 621 x10_4/ul
  Ret: 6.4%
  WBC: 79.7 x10_2/uL
  KIDNEY_L: 1 g
  KIDNEY_R: 1 g
  KIDNEY_TOTAL: 2 g
  LIVER: 14.4 g
  A/G: 0.9
  ALP: 1471.4 IU/L
  ALT: 46.2 IU/L
  AST: 63.6 IU/L
  BUN: 16.6 mg/dL
  CRE: 0.2 mg/dL
  Ca: 11.5 mg/dL
  Cl: 107.8 meq/L
  DBIL: 0.014 mg/dL
  GLC: 193.2 mg/dL
  IP: 6.9 mg/dL
  K: 4.2 meq/L
  LDH: 71.2 IU/L
  Na: 143.8 meq/L
  PL: 142.2 mg/dL
  RALB: 2.8 g/dL
  TBIL: 0.02 mg/dL
  TC: 80.6 mg/dL
  TG: 87 mg/dL
  TP: 6 g/dL
  gamma-GTP: 1.2 IU/L
[3]
  TERMINAL_BW: 313.6 g
  APTT: 19.7 s
  Bas: 0%
  Eos: 0.8%
  Fbg: 306.2 mg/dL
  Hb: 14 g/dL
  Ht: 40.1%
  Lym: 80%
  MCH: 21 pg
  MCHC: 34.8%
  MCV: 60.3 fL
  Mono: 2%
  Neu: 16.2%
  PT: 11.6 s
  Plat: 118.9 x10_4/uL
  RBC: 665.2 x10_4/ul
  Ret: 4.2%
  WBC: 102.9 x10_2/uL
  KIDNEY_L: 1.2 g
  KIDNEY_R: 1.2 g
  KIDNEY_TOTAL: 2.4 g
  LIVER: 15.9 g
  A/G: 0.8
  ALP: 1404.2 IU/L
  ALT: 52.2 IU/L
  AST: 63.4 IU/L
  BUN: 17.2 mg/dL
  CRE: 0.2 mg/dL
  Ca: 11.3 mg/dL
  Cl: 106.8 meq/L
  DBIL: 0.006 mg/dL
  GLC: 188.2 mg/dL
  IP: 7 mg/dL
  K: 4.3 meq/L
  LDH: 76.6 IU/L
  Na: 142.8 meq/L
  PL: 136.8 mg/dL
  RALB: 2.9 g/dL
  TBIL: 0.052 mg/dL
  TC: 74.4 mg/dL
  TG: 74.4 mg/dL
  TP: 6.3 g/dL
  gamma-GTP: 1 IU/L
[4]
  TERMINAL_BW: 389.8 g
  APTT: 17.9 s
  Bas: 0%
  Eos: 1%
  Fbg: 281 mg/dL
  Hb: 14.5 g/dL
  Ht: 41.2%
  Lym: 78.8%
  MCH: 19.7 pg
  MCHC: 35.3%
  MCV: 55.7 fL
  Mono: 2.2%
  Neu: 16.8%
  PT: 11.9 s
  Plat: 105.4 x10_4/uL
  RBC: 741.2 x10_4/ul
  Ret: 2.8%
  WBC: 97.2 x10_2/uL
  KIDNEY_L: 1.3 g
  KIDNEY_R: 1.3 g
  KIDNEY_TOTAL: 2.5 g
  LIVER: 18.1 g
  A/G: 0.9
  ALP: 1029.8 IU/L
  ALT: 46 IU/L
  AST: 58 IU/L
  BUN: 16.8 mg/dL
  CRE: 0.3 mg/dL
  Ca: 10.7 mg/dL
  Cl: 105.8 meq/L
  DBIL: 0.01 mg/dL
  GLC: 190.4 mg/dL
  IP: 5.8 mg/dL
  K: 4.1 meq/L
  LDH: 63.4 IU/L
  Na: 142.8 meq/L
  PL: 153.8 mg/dL
  RALB: 2.9 g/dL
  TBIL: 0.058 mg/dL
  TC: 83.4 mg/dL
  TG: 93.6 mg/dL
  TP: 6.4 g/dL
  gamma-GTP: 1 IU/L
[5]
  TERMINAL_BW: 218.1 g
  APTT: 22.2 s
  Bas: 0%
  Eos: 1%
  Fbg: 285.2 mg/dL
  Hb: 13.2 g/dL
  Ht: 38.9%
  Lym: 75.2%
  MCH: 21.2 pg
  MCHC: 33.9%
  MCV: 62.8 fL
  Mono: 3.2%
  Neu: 20.2%
  PT: 11.4 s
  Plat: 115.7 x10_4/uL
  RBC: 620.2 x10_4/ul
  Ret: 5.3%
  WBC: 90.9 x10_2/uL
  KIDNEY_L: 0.9 g
  KIDNEY_R: 0.9 g
  KIDNEY_TOTAL: 1.9 g
  LIVER: 13.5 g
  A/G: 0.9
  ALP: 1900.8 IU/L
  ALT: 60.6 IU/L
  AST: 77.2 IU/L
  BUN: 12.6 mg/dL
  CRE: 0.2 mg/dL
  Ca: 10.8 mg/dL
  Cl: 107.2 meq/L
  DBIL: 0.02 mg/dL
  GLC: 179.4 mg/dL
  IP: 6.9 mg/dL
  K: 4.3 meq/L
  LDH: 101.4 IU/L
  Na: 142 meq/L
  PL: 157.6 mg/dL
  RALB: 2.6 g/dL
  TBIL: 0.05 mg/dL
  TC: 84.6 mg/dL
  TG: 99.4 mg/dL
  TP: 5.6 g/dL
  gamma-GTP: 1.6 IU/L
[6]
  TERMINAL_BW: 254.1 g
  APTT: 22 s
  Bas: 0%
  Eos: 0.8%
  Fbg: 341.2 mg/dL
  Hb: 12.6 g/dL
  Ht: 37.3%
  Lym: 70.4%
  MCH: 20.9 pg
  MCHC: 33.9%
  MCV: 61.5 fL
  Mono: 3.2%
  Neu: 24.8%
  PT: 11.5 s
  Plat: 147.1 x10_4/uL
  RBC: 606.6 x10_4/ul
  Ret: 6.9%
  WBC: 116.2 x10_2/uL
  KIDNEY_L: 1 g
  KIDNEY_R: 1 g
  KIDNEY_TOTAL: 2 g
  LIVER: 16 g
  A/G: 0.9
  ALP: 1196.8 IU/L
  ALT: 48.2 IU/L
  AST: 59.8 IU/L
  BUN: 16.6 mg/dL
  CRE: 0.2 mg/dL
  Ca: 11.7 mg/dL
  Cl: 106 meq/L
  DBIL: 0.016 mg/dL
  GLC: 202.2 mg/dL
  IP: 7 mg/dL
  K: 4.2 meq/L
  LDH: 96.2 IU/L
  Na: 143.6 meq/L
  PL: 144.8 mg/dL
  RALB: 3 g/dL
  TBIL: 0.032 mg/dL
  TC: 80.6 mg/dL
  TG: 70.2 mg/dL
  TP: 6.3 g/dL
  gamma-GTP: 1.8 IU/L
[7]
  TERMINAL_BW: 312.8 g
  APTT: 24.3 s
  Bas: 0%
  Eos: 0.6%
  Fbg: 314.6 mg/dL
  Hb: 13.4 g/dL
  Ht: 38.7%
  Lym: 76.8%
  MCH: 20.6 pg
  MCHC: 34.8%
  MCV: 59.4 fL
  Mono: 3.6%
  Neu: 18.2%
  PT: 12 s
  Plat: 122.7 x10_4/uL
  RBC: 651.4 x10_4/ul
  Ret: 6.4%
  WBC: 112.6 x10_2/uL
  KIDNEY_L: 1.2 g
  KIDNEY_R: 1.2 g
  KIDNEY_TOTAL: 2.4 g
  LIVER: 19 g
  A/G: 0.9
  ALP: 1377.8 IU/L
  ALT: 57.2 IU/L
  AST: 62.4 IU/L
  BUN: 16.4 mg/dL
  CRE: 0.2 mg/dL
  Ca: 11.4 mg/dL
  Cl: 106 meq/L
  DBIL: 0.018 mg/dL
  GLC: 195.6 mg/dL
  IP: 7.1 mg/dL
  K: 4.2 meq/L
  LDH: 122.6 IU/L
  Na: 143.8 meq/L
  PL: 149 mg/dL
  RALB: 2.9 g/dL
  TBIL: 0.084 mg/dL
  TC: 75 mg/dL
  TG: 88 mg/dL
  TP: 6.4 g/dL
  gamma-GTP: 2 IU/L
[8]
  TERMINAL_BW: 364.7 g
  APTT: 28.5 s
  Bas: 0%
  Eos: 1.2%
  Fbg: 286.4 mg/dL
  Hb: 13 g/dL
  Ht: 37.8%
  Lym: 77%
  MCH: 20.2 pg
  MCHC: 34.5%
  MCV: 58.5 fL
  Mono: 1.8%
  Neu: 19.6%
  PT: 12.6 s
  Plat: 119.4 x10_4/uL
  RBC: 646.6 x10_4/ul
  Ret: 7.6%
  WBC: 126.7 x10_2/uL
  KIDNEY_L: 1.3 g
  KIDNEY_R: 1.3 g
  KIDNEY_TOTAL: 2.5 g
  LIVER: 20.4 g
  A/G: 0.8
  ALP: 1039.2 IU/L
  ALT: 55.2 IU/L
  AST: 59.6 IU/L
  BUN: 16.8 mg/dL
  CRE: 0.3 mg/dL
  Ca: 10.6 mg/dL
  Cl: 106.4 meq/L
  DBIL: 0.014 mg/dL
  GLC: 188.8 mg/dL
  IP: 6.1 mg/dL
  K: 4.2 meq/L
  LDH: 70.8 IU/L
  Na: 143.6 meq/L
  PL: 148 mg/dL
  RALB: 2.9 g/dL
  TBIL: 0.082 mg/dL
  TC: 76 mg/dL
  TG: 67 mg/dL
  TP: 6.5 g/dL
  gamma-GTP: 2.4 IU/L
